Legend:
Assay in all cases: relative viability (nuclei count vs DMSO), 5 days (fraction); higher = more cells survive
[1] = compound: C1CSC2=C(C(=O)N1)SC3=C2C=C(C=C3)O [kb NB 142-70] + O=C(c1cc(Cc2n[nH]c(=O)c3ccccc23)ccc1F)N1CCN(C(=O)C2CC2)CC1 [Olaparib] (partner 8 µM)
How it was run: (§1)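 Medians of duplicate plates are given as relative viability. That measure is the nuclei count in treated wells divided by the count in vehicle wells. Counts were taken on 4× images of lung cancer cell lines in 1536-well plates, 5 days after pin-tool dosing the day after seeding with one drug alone or a fixed anchor-drug dose plus five library-drug doses (not always all listed) in √10 steps.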

[2] = compound: NCC(=O)Nc1ccc(-n2nc(C(F)(F)F)cc2-c2ccc3c(ccc4ccccc43)c2)cc1 + NC(=O)Nc1cc(-c2cccc(F)c2)sc1C(=O)N[C@H]1CCCNC1 [AZD7762] (partner 0.2 µM)
How it was run: as §1

[3] = compound: C1CSC2=C(C(=O)N1)SC3=C2C=C(C=C3)O [kb NB 142-70] + CC(C)C[C@H](NC(=O)[C@H](Cc1ccccc1)NC(=O)c1cnccn1)B(O)O [Bortezomib] (partner 0.002 µM)
How it was run: as §1

[4] = compound: C1CSC2=C(C(=O)N1)SC3=C2C=C(C=C3)O [kb NB 142-70] + CCNC(=O)c1noc(-c2cc(C(C)C)c(O)cc2O)c1-c1ccc(CN2CCOCC2)cc1 [Luminespib] (partner 0.01 µM)
How it was run: as §1

[5] = compound: NCC(=O)Nc1ccc(-n2nc(C(F)(F)F)cc2-c2ccc3c(ccc4ccccc43)c2)cc1 + CS(=O)(=O)N1CCN(Cc2cc3nc(-c4cccc5[nH]ncc45)nc(N4CCOCC4)c3s2)CC1 [Pictilisib] (partner 1 µM)
How it was run: as §1

Cell Line	relative viability ([1]; first compound 0.1 µM)	relative viability ([1]; first compound 1 µM)	relative viability ([1]; first compound 3.162 µM)	relative viability ([2]; first compound 0.02 µM)	relative viability ([2]; first compound 0.06325 µM)	relative viability ([2]; first compound 0.2 µM)	relative viability ([2]; first compound 0.6325 µM)	relative viability ([2]; first compound 2 µM)	relative viability ([3]; first compound 0.1 µM)	relative viability ([3]; first compound 1 µM)	relative viability ([3]; first compound 3.162 µM)	relative viability ([4]; first compound 0.1 µM)	relative viability ([4]; first compound 1 µM)	relative viability ([4]; first compound 3.162 µM)	relative viability ([5]; first compound 0.02 µM)	relative viability ([5]; first compound 0.06325 µM)	relative viability ([5]; first compound 0.2 µM)	relative viability ([5]; first compound 0.6325 µM)	relative viability ([5]; first compound 2 µM)
NCI-H1975	0.81	0.883	0.35	0.732	0.699	0.777	0.691	0.708	0.33	0.283	0.153	0.286	0.197	0.106	0.273	0.307	0.292	0.335	0.307
CAL-12T	0.7	0.691	0.677	0.739	0.622	0.718	0.669	0.588	1.01	1.04	0.819	0.56	0.611	0.25	0.392	0.617	0.481	0.404	0.475
NCI-H1623	–	–	–	–	–	–	–	–	–	–	–	0.427	0.476	0.594	–	–	–	–	–
HCC-44	0.945	0.981	0.974	1	1.05	0.997	1.01	1.03	0.952	0.94	0.899	1.03	1	0.405	0.5	0.638	0.633	0.684	0.659
EKVX	0.853	0.88	0.984	0.748	0.823	0.651	0.607	0.738	0.994	1.05	0.993	0.81	0.857	0.943	0.531	0.493	0.466	0.45	0.531
NCI-H1651	0.181	0.181	0.187	0.447	0.433	0.513	0.47	0.423	0.966	0.863	0.857	0.926	0.856	0.354	0.58	0.591	0.592	0.467	0.513
NCI-H1944	0.434	0.414	0.482	0.476	0.484	0.551	0.47	0.559	–	–	–	0.708	0.726	0.8	0.349	0.359	0.326	0.35	0.331
NCI-H1703	0.47	0.387	0.455	0.127	–	0.122	0.124	0.142	0.255	0.361	0.209	–	–	–	0.218	0.244	0.278	0.255	0.262
Calu-6	0.589	0.457	0.287	–	–	–	–	–	1.01	0.946	0.62	–	–	–	0.849	0.891	0.975	0.949	0.93
EBC-1	0.775	0.587	0.385	–	–	–	–	–	0.592	0.546	0.358	–	–	–	0.324	0.37	0.434	0.36	0.404
SW 1573	0.421	0.305	0.177	–	–	–	–	–	1.18	0.967	0.322	0.21	0.413	0.149	0.513	0.545	0.493	0.514	0.486
A-427	0.747	0.77	0.52	0.757	0.719	0.854	0.693	0.786	1.01	1.05	1.01	0.845	1.12	0.584	0.595	0.726	0.744	0.739	0.815
NCI-H2347	0.634	0.632	0.568	0.719	0.696	0.756	0.817	0.75	1.03	0.808	1.07	0.387	0.431	0.387	0.831	0.668	0.706	0.738	0.711
NCI-H1355	0.818	0.744	0.775	0.717	0.776	0.797	0.776	0.806	1.24	1.16	1.22	0.733	0.683	0.553	0.388	0.491	0.339	0.411	0.552
NCI-H358	0.531	0.489	0.297	0.535	0.593	0.607	0.609	0.526	–	–	–	0.278	0.152	0.148	0.43	0.309	0.322	0.383	0.341
PC-3 [JPC-3]	1.12	1.25	1.15	0.792	0.873	0.85	0.88	0.832	0.8	0.83	0.898	0.709	0.817	0.627	0.645	0.855	0.739	0.745	0.88
NCI-H2228	0.694	0.587	0.362	–	–	–	–	–	1.08	0.689	0.303	0.176	0.13	0.119	0.473	0.471	0.355	0.299	0.481
HOP-62	0.457	0.39	0.333	0.646	0.482	0.693	0.566	0.711	0.919	1	0.569	0.971	0.884	1.06	0.775	0.577	0.68	0.752	0.623
HARA	0.873	0.602	0.547	0.227	0.429	0.304	0.392	0.473	1.15	1.06	0.964	0.625	0.769	0.456	0.418	0.355	0.486	0.568	0.559

— the supplement of paper PMC10307832
